# Assay results from ChEMBL document CHEMBL4219219, “The synthesis and antistaphylococcal activity of N-sulfonaminoethyloxime derivatives of dehydroabietic acid” (Bioorg Med Chem Lett, 2018).
# Active and inactive are the calls of the source. No cut-off for these calls is given here.
# How the values were obtained:
# Staphylococcus aureus [1] = experiment: Antistaphylococcal activity against aminoglycosides/tetracycline-resistant Staphylococcus aureus NRS-1 after 18 hrs by two-fold serial dilution method; assay type: functional; conditions: NRS-1, 18 h
# Staphylococcus aureus [2] = experiment: Antistaphylococcal activity against erythromycin-resistant Staphylococcus aureus NRS-70 after 18 hrs by two-fold serial dilution method; assay type: functional; conditions: NRS-70, 18 h
# Escherichia coli = experiment: Antibacterial activity against Escherichia coli AB1157 at 50 ug/ml after 18 hrs by two-fold serial dilution method; assay type: functional, organism-based
# Staphylococcus aureus [3] = experiment: Antistaphylococcal activity against gentamicin-resistant Staphylococcus aureus NRS-108 after 18 hrs by two-fold serial dilution method; assay type: functional; conditions: NRS-108, 18 h
# Staphylococcus aureus [4] = experiment: Antistaphylococcal activity against Staphylococcus aureus Newman after 18 hrs by two-fold serial dilution method; assay type: functional
# Staphylococcus aureus [5] = experiment: Antistaphylococcal activity against oxacillin/tetracycline-resistant Staphylococcus aureus NRS-100 after 18 hrs by two-fold serial dilution method; assay type: functional; conditions: NRS-100, 18 h
# Staphylococcus aureus [6] = experiment: Antistaphylococcal activity against linezolid-resistant Staphylococcus aureus NRS-271 containing phage type E-MRSA 15 after 18 hrs by two-fold serial dilution method; assay type: functional; conditions: NRS-271, 18 h
SMILES,MIC (Staphylococcus aureus [1]),MIC (Staphylococcus aureus [2]),Activity (Escherichia coli),MIC (Staphylococcus aureus [3]),MIC (Staphylococcus aureus [4]),MIC (Staphylococcus aureus [5]),MIC (Staphylococcus aureus [6])
CC(C)c1cc2c(cc1Br)[C@@]1(C)CCC[C@@](C)(C(=O)O)[C@@H]1C/C2=N\OCCNS(=O)(=O)c1ccc(Cl)cc1Cl,0.78 to 1.56 µg/mL,0.39 to 0.78 µg/mL,inactive,0.78 to 1.56 µg/mL,0.78 to 1.56 µg/mL,0.78 to 1.56 µg/mL,0.78 to 1.56 µg/mL
CC(C)c1cc2c(cc1Br)[C@@]1(C)CCC[C@@](C)(C(=O)O)[C@@H]1C/C2=N\OCCNS(=O)(=O)c1ccc(Cl)cc1,1.56 to 3.13 µg/mL,0.78 to 1.56 µg/mL,inactive,1.56 to 3.13 µg/mL,0.78 to 1.56 µg/mL,1.56 to 3.13 µg/mL,1.56 to 3.13 µg/mL
CC(C)c1cc2c(cc1Br)[C@@]1(C)CCC[C@@](C)(C(=O)O)[C@@H]1C/C2=N\OCCNS(=O)(=O)c1cccc2cccnc12,1.56 to 3.13 µg/mL,1.56 to 3.13 µg/mL,inactive,3.13 to 6.25 µg/mL,1.56 to 3.13 µg/mL,3.13 to 6.25 µg/mL,3.13 to 6.25 µg/mL
Cc1ccc(C)c(S(=O)(=O)NCCO/N=C2\C[C@H]3[C@](C)(C(=O)O)CCC[C@]3(C)c3cc(Br)c(C(C)C)cc32)c1,3.13 to 6.25 µg/mL,0.78 to 1.56 µg/mL,inactive,1.56 to 3.13 µg/mL,1.56 to 3.13 µg/mL,1.56 to 3.13 µg/mL,3.13 to 6.25 µg/mL
CC(C)c1cc2c(cc1Br)[C@@]1(C)CCC[C@@](C)(C(=O)O)[C@@H]1C/C2=N\OCCNS(=O)(=O)c1ccccc1F,1.56 to 3.13 µg/mL,1.56 to 3.13 µg/mL,inactive,3.13 to 6.25 µg/mL,1.56 to 3.13 µg/mL,3.13 to 6.25 µg/mL,1.56 to 3.13 µg/mL
COc1ccc(S(=O)(=O)NCCO/N=C2\C[C@H]3[C@](C)(C(=O)O)CCC[C@]3(C)c3cc(Br)c(C(C)C)cc32)cc1,,,inactive,,3.13 to 6.25 µg/mL,,
CCCS(=O)(=O)NCCO/N=C1\C[C@H]2[C@](C)(C(=O)O)CCC[C@]2(C)c2cc(Br)c(C(C)C)cc21,,,inactive,,12.5 to 25 µg/mL,,
CN(C)[C@@H]1C(O)=C(C(N)=O)C(=O)[C@@]2(O)C(O)=C3C(=O)c4c(O)cccc4[C@@](C)(O)[C@H]3C[C@@H]12 [TETRACYCLINE],> 25 µg/mL,< 0.2 µg/mL,,< 0.2 µg/mL,< 0.2 µg/mL,< 0.2 µg/mL,< 0.2 µg/mL
Cc1ccc(S(=O)(=O)NCCO/N=C2\C[C@H]3[C@](C)(C(=O)O)CCC[C@]3(C)c3cc(Br)c(C(C)C)cc32)cc1,3.13 to 6.25 µg/mL,1.56 to 3.13 µg/mL,inactive,1.56 to 3.13 µg/mL,1.56 to 3.13 µg/mL,3.13 to 6.25 µg/mL,3.13 to 6.25 µg/mL
CCS(=O)(=O)NCCO/N=C1\C[C@H]2[C@](C)(C(=O)O)CCC[C@]2(C)c2cc(Br)c(C(C)C)cc21,,,inactive,,12.5 to 25 µg/mL,,
CC(C)c1cc2c(cc1Br)[C@@]1(C)CCC[C@@](C)(C(=O)O)[C@@H]1C/C2=N\OCCNS(=O)(=O)c1ccc(Br)s1,1.56 to 3.13 µg/mL,1.56 to 3.13 µg/mL,inactive,1.56 to 3.13 µg/mL,1.56 to 3.13 µg/mL,1.56 to 3.13 µg/mL,1.56 to 3.13 µg/mL
CC(C)c1cc2c(cc1Br)[C@@]1(C)CCC[C@@](C)(C(=O)O)[C@@H]1C/C2=N\OCCNS(=O)(=O)c1ccc(Cl)s1,1.56 to 3.13 µg/mL,0.78 to 1.56 µg/mL,inactive,1.56 to 3.13 µg/mL,1.56 to 3.13 µg/mL,1.56 to 3.13 µg/mL,1.56 to 3.13 µg/mL
CC(C)c1cc2c(cc1Br)[C@@]1(C)CCC[C@@](C)(C(=O)O)[C@@H]1C/C2=N\OCCNS(=O)(=O)c1ccccc1Br,1.56 to 3.13 µg/mL,1.56 to 3.13 µg/mL,inactive,1.56 to 3.13 µg/mL,1.56 to 3.13 µg/mL,1.56 to 3.13 µg/mL,1.56 to 3.13 µg/mL
CC(C)c1cc2c(cc1Br)[C@@]1(C)CCC[C@@](C)(C(=O)O)[C@@H]1C/C2=N\OCCNS(=O)(=O)c1cccc(Cl)c1,1.56 to 3.13 µg/mL,0.78 to 1.56 µg/mL,inactive,1.56 to 3.13 µg/mL,0.78 to 1.56 µg/mL,1.56 to 3.13 µg/mL,1.56 to 3.13 µg/mL
CC(C)c1cc2c(cc1Br)[C@@]1(C)CCC[C@@](C)(C(=O)O)[C@@H]1C/C2=N\OCCNS(=O)(=O)c1ccc(Br)c(C(F)(F)F)c1,0.78 to 1.56 µg/mL,0.78 to 1.56 µg/mL,inactive,0.78 to 1.56 µg/mL,0.78 to 1.56 µg/mL,0.78 to 1.56 µg/mL,0.78 to 1.56 µg/mL
CC(C)c1cc2c(cc1Br)[C@@]1(C)CCC[C@@](C)(C(=O)O)[C@@H]1C/C2=N\OCCNS(=O)(=O)c1ccc(F)cc1,1.56 to 3.13 µg/mL,1.56 to 3.13 µg/mL,inactive,1.56 to 3.13 µg/mL,1.56 to 3.13 µg/mL,1.56 to 3.13 µg/mL,1.56 to 3.13 µg/mL
CC(C)c1cc2c(cc1Br)[C@@]1(C)CCC[C@@](C)(C(=O)O)[C@@H]1C/C2=N\OCCN,,,inactive,,> 50 µg/mL,,
